Patent US10588897B2 (priority 2013, dated 2020)
Read-outs that look alike come from different tables or passages of the source.

What was measured:
[1] = test system: Y. pseudotuberculosis T3SS (YopE secretion); format: cell-based, Yersinia pseudotuberculosis
E. coli = conditions: found by Kimura et al.; cited from earlier work
[2] = test system: Escherichia coli type III secretion; conditions: literature; cited from earlier work
[3] = test system: Yersinia pestis type III secretion; conditions: cited from earlier work
[4] = test system: wildtype Y. pseudotuberculosis IP2666; format: cell-based, Yersinia pseudotuberculosis
[5] = test system: Y. pseudotuberculosis T3SS; format: cell-based, Yersinia pseudotuberculosis

Structure (SMILES): C/C=C\C=C\[C@@H]1O[C@](O)([C@H](CC)C(=O)NC/C=C/C=C(\C)[C@@H](OC)[C@@H](C)[C@@H]2O[C@H](/C=C/C=C/C=C(\C)C(=O)c3c(O)ccn(C)c3=O)[C@H](O)[C@@H]2O)[C@H](O)[C@H](O)C1(C)C [Aurodox]
- inhibition of YopE secretion ([1]; 12.5 μM, highest concentration used): did not significantly inhibit
- concentrations cytotoxic to E. coli (E. coli): above 12.5 μM
- in vitro type III secretion by Escherichia coli [2]: reduce

Structure (SMILES): CC(Oc1ccc(Cl)cc1Cl)C(=O)NCc1ccc2c(c1)OCO2 (stereo not drawn) [MBX 1641]
- in vitro type III secretion by Yersinia pestis [3]: reduce

Structure (SMILES): C/C=C(\C)[C@H](O)[C@H](C)/C=C(C)/C=C/C/C(C)=C/Cc1nc(OC)cc(O)c1C [Mer-A 2026B]
- Y. pseudotuberculosis in vitro growth (OD600 compound-treated/OD600 DMSO-treated) [4]: do not affect
- Yersinia growth by optical density [4]: did not inhibit
- YopM translocation into CHO cells [5]: significantly reduced
- T3SS inhibition (YopM translocation into CHO cells) ([5]; 71 µM): 75%
- inhibition of YopE secretion at lower concentrations [1]: dose dependent decrease in inhibition
- reduction of secretion of the T3SS effector YopE [1]: 45%

Structure (SMILES): C/C=C(\C)[C@H](O)[C@H](C)/C=C(C)/C=C/C/C(C)=C/Cc1nc(OC)c(OC)c(O)c1C [Piericidin A1]
- Y. pseudotuberculosis in vitro growth (OD600 compound-treated/OD600 DMSO-treated) ([4]; 143 μM, 23° C., continuous shaking): do not affect
- Y. pseudotuberculosis in vitro growth (OD600 compound-treated/OD600 DMSO-treated) ([4]; 143 μM, 37° C., continuous shaking): do not affect
- Yersinia growth by optical density ([4]; 26° C. and 37° C., all tested concentrations up to 143 μM): did not inhibit
- YopM-β-lactamase translocation ([5]; concentrations of 36 μM and greater): significantly diminished
- reduction of secretion of the T3SS effector YopE ([1]; 71 μM, 2 hours at 37° C., relative to DMSO): 65%
